The record followed here is patent publication US9834550B2, “Pyridopyrimidinone compounds for modulating the catalytic activity of histone lysine demethylases (KDMs)” (Dong-A Socio Holdings Co., Ltd., priority 2014, dated 2017).

The target of this test is T1, Recombinant human JARID1B/KDM5B (Homo sapiens, UniProt Q9UGL1).
T1 construct: purchased Active Motif 31432; host or cells: Sf9 insect cells
Kind of test: LANCE Ultra TR-FRET demethylase assay with FLAG-tagged JARID1B. It is filed as biochemical. The note with it: 100 nM compound; 500 nM biotinylated H3K4me3 peptide substrate. The source says: FLAG-tagged JARID1B (also known as KDM5B) protein was screened against more than 170 compounds. For this compound screening, LANCE Ultra time-resolved fluorescence resonance energy transfer (TR-FRET) assay was employed using an europoium (Eu)-labeled antibody that can specifically recognize mono- or dimethylated peptides (H3K4me2/1) and ULight-streptavidin (ULight-SA), a small molecule fluorescent dye. When irradiated at 340 nm, the energy from the Eu donor is transferred to the ULight acceptor dye which, in turn, emits light primarily at 665 nm. The ratio between the intensity of primary emission at 665 nm and that of secondary emission at 590 nm was used to quantify the level of lysine methylation. As JARID1B removes more methyl moieties from tri-methylated substrate peptides (H3K4me3), the ratio increases until the enzyme reaction is terminated. In case, therefore, the compounds disrupt the enzymatic activity completely, the ratio becomes equal to a background value.
Recombinant human JARID1B/KDM5B (accession number NP_006609) of molecular weight 179.9 KDa was expressed in Sf9 insect cells and contains an N-terminal FLAG tag. The enzyme was obtained from Active Motif (Catalog No. 31432). The tri-methylated histone substrate peptide of purity greater than 95% was a synthetic peptide in which the first 21 amino acids correspond to the human histone H3 sequence with three extra amino acids and a biotin motif (GGK-biotin) linked to the C-terminus [sequence: ART-K (Me3)-QTARKSTGGKAPRKQLA-GGK-biotin-OH], (AnaSpec, Fremont, Calif. Catalog. No. ANA-1413). The reference inhibitory compound tranylcypromine (or trans-2-phenylcyclopropylamine hydrochloride, also known as, 2-PCPA) was purchased from Sigma (St. Louis, Mo. Cat. no. P8511). ULight-labeled streptavidin (ULight-SA, Catalog no. TRF0102), Eu-W1024-labeled anti-methyl-Histone H3 Lysine 4 (H3K4me1-2) Antibody (Catalog no. TRF0402), and LANCE detection buffer 10× (Catalog no. CR97-100) were obtained from PerkinElmer (Montreal, Quebec, Canada). The TR-FRET experiments were carried out in white, low-volume 384-wellplates purchased from PerkinElmer (ProxiPlate-384 Plus, Catalog no. 6008280).
The TR-FRET signal was measured in the presence both of the bio-H3K4me3 peptide and FLAG-JARID1B by detecting any H3K4me2/1 peptide produced in the assay system. Assays using only the bio-H3K4me2 peptide were served as a positive control. Robust enzymatic progressions were observed by using JARID1B at concentrations ranging from 10 to 30 nM. In a typical TR-FRET experiment, JARID1B was pre-incubated with or without 20 uM, 1 uM, or 0.1 uM of test-compounds (containing 1% DMSO final) for […]. The enzymatic reactions were initiated by the addition of 500 nM biotinylated H3K4me3 peptide substrate plus 500 uM of 2-OG, 25 uM Fe(II) and 2 mM ascorbate. The reaction buffer also contained 50 mM Hepes (pH7.5), 0.01% (v/v) Tween 20, and 50 mM NaCl. The reaction mixture was incubated for […] at room temperature before reading on an EnVision plate reader (PerkinElmer, Waltham, Mass.).
Background: Time-resolved FRET reads energy transfer from a long-lived donor to a nearby acceptor.

T1 sequence (Q9UGL1 whole entry): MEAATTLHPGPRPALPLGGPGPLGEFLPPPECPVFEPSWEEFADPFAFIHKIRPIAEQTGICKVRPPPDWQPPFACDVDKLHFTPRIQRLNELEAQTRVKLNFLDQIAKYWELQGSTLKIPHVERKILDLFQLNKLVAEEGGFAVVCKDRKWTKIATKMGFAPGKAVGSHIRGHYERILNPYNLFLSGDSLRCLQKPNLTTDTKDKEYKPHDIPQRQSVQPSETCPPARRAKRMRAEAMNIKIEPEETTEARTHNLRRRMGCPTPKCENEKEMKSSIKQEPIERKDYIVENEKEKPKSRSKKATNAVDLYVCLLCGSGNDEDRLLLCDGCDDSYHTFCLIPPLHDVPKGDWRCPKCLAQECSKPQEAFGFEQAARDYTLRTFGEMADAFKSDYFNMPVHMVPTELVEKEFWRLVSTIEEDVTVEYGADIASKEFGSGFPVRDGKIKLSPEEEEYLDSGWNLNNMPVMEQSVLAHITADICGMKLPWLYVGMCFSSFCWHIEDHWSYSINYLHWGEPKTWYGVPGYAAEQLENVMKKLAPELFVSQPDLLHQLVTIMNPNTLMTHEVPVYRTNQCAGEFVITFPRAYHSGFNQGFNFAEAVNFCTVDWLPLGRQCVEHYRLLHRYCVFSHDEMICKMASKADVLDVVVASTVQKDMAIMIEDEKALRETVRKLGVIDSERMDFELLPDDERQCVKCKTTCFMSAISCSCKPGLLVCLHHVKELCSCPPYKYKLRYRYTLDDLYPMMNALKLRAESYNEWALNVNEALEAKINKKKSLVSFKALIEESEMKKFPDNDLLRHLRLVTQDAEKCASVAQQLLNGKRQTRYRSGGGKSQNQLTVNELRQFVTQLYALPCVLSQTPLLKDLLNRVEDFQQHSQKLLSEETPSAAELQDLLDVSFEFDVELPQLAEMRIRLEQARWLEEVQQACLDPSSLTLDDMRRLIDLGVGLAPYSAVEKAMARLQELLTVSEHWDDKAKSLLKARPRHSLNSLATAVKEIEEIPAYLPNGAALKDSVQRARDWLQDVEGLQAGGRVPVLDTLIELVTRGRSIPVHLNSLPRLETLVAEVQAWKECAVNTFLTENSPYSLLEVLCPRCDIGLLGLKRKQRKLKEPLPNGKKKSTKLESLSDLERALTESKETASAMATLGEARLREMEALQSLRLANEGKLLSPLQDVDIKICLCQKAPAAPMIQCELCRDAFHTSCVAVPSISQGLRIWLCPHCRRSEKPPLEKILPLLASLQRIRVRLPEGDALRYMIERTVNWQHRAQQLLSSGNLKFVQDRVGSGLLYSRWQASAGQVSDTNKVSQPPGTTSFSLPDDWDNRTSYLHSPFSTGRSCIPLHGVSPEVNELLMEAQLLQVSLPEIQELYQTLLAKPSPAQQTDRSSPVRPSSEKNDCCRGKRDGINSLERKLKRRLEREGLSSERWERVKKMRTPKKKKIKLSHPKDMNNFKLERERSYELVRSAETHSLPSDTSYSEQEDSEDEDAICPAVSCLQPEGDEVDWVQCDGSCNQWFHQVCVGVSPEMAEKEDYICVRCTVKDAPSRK

By inhibition is commonly meant how much of the control response was suppressed. For `O=c1[nH]c(COc2cccc(Cl)c2Cl)nc2c(CNCC3CCNCC3)nccc12` [Example 113, 2-((2,3-dichlorophenoxy)methyl)-8-(((piperidin-4-ylmethyl)amino)methyl)pyrido[3,4-d]pyrimidin-4(3H)-one], the inhibition at 0.1 µM lay in the range of 20 to 50%.

Regarding `O=c1[nH]c(COc2ccc(Cl)cc2Cl)nc2c(CNCC3CCNCC3)nccc12` [Example 114, 2-((2,4-dichlorophenoxy)methyl)-8-(((piperidin-4-ylmethyl)amino)methyl)pyrido[3,4-d]pyrimidin-4(3H)-one], the inhibition at 0.1 µM was 20 to 50%.

For `O=c1[nH]c(COc2cc(Cl)ccc2Cl)nc2c(CNCC3CCNCC3)nccc12` [Example 115, 2-((2,5-dichlorophenoxy)methyl)-8-(((piperidin-4-ylmethyl)amino)methyl)pyrido[3,4-d]pyrimidin-4(3H)-one], the inhibition at 0.1 µM was in the range of 20 to 50%.

For the compound `O=c1[nH]c(COc2ccccc2F)nc2c(CNCC3CCNCC3)nccc12` [Example 116, 2-((2-fluorophenoxy)methyl)-8-(((piperidin-4-ylmethyl)amino)methyl)pyrido[3,4-d]pyrimidin-4(3H)-one], the inhibition at 0.1 µM lay within 20 to 50%.

Take `O=c1[nH]c(COc2ccccc2Br)nc2c(CNCC3CCNCC3)nccc12` [Example 117, 2-((2-bromophenoxy)methyl)-8-(((piperidin-4-ylmethyl)amino)methyl)pyrido[3,4-d]pyrimidin-4(3H)-one]: the inhibition at 0.1 µM fell in the range of 20 to 50%.

With `Cc1ccccc1OCc1nc2c(CNCC3CCNCC3)nccc2c(=O)[nH]1` [Example 118, 8-(((piperidin-4-ylmethyl)amino)methyl)-2-((o-tolyloxy)methyl)pyrido[3,4-d]pyrimidin-4(3H)-one], the inhibition at 0.1 µM lay in the range of 20 to 50%.

In the case of `Cc1cccc(OCc2nc3c(CNCC4CCNCC4)nccc3c(=O)[nH]2)c1` [Example 119, 8-(((piperidin-4-ylmethyl)amino)methyl)-2-((m-tolyloxy)methyl)pyrido[3,4-d]pyrimidin-4(3H)-one], the inhibition at 0.1 µM is 20 to 50%.

Consider `Cc1ccc(OCc2nc3c(CNCC4CCNCC4)nccc3c(=O)[nH]2)cc1` [Example 120, 8-(((piperidin-4-ylmethyl)amino)methyl)-2-((p-tolyloxy)methyl)pyrido[3,4-d]pyrimidin-4(3H)-one], for which the inhibition at 0.1 µM is 20 to 50%.

With `O=c1[nH]c(COc2ccc(Cc3ccccc3)cc2)nc2c(CNCC3CCNCC3)nccc12` [Example 121, 2-((4-benzylphenoxy)methyl)-8-(((piperidin-4-ylmethyl)amino)methyl)pyrido[3,4-d]pyrimidin-4(3H)-one], the inhibition at 0.1 µM is > 50%.

In the case of `O=c1[nH]c(COc2ccccc2Cl)nc2c(CNCC3CCNCC3)nccc12` [Example 122, 2-((2-chlorophenoxy)methyl)-8-(((piperidin-4-ylmethyl)amino)methyl)pyrido[3,4-d]pyrimidin-4(3H)-one], the inhibition at 0.1 µM is 20 to 50%.

Take `O=c1[nH]c(COc2ccccc2)nc2c(CNCC3CCNCC3)nccc12` [Example 123, 2-(phenoxymethyl)-8-(((piperidin-4-ylmethyl)amino)methyl)pyrido[3,4-d]pyrimidin-4(3H)-one]: the inhibition at 0.1 µM was in the range of 20 to 50%.

Turning to `O=c1[nH]c(COc2ccc(F)cc2F)nc2c(CNCC3CCNCC3)nccc12` [Example 124, 2-((2,4-difluorophenoxy)methyl)-8-(((piperidin-4-ylmethyl)amino)methyl)pyrido[3,4-d]pyrimidin-4(3H)-one], the inhibition at 0.1 µM was in the range of 20 to 50%.

As to `O=c1[nH]c(COc2cc(F)cc(F)c2)nc2c(CNCC3CCNCC3)nccc12` [Example 125, 2-((3,5-difluorophenoxy)methyl)-8-(((piperidin-4-ylmethyl)amino)methyl)pyrido[3,4-d]pyrimidin-4(3H)-one], the inhibition at 0.1 µM is 20 to 50%.

Regarding `O=c1[nH]c(COc2ccc(F)c(Cl)c2)nc2c(CNCC3CCNCC3)nccc12` [Example 126, 2-((3-chloro-4-fluorophenoxy)methyl)-8-(((piperidin-4-ylmethyl)amino)methyl)pyrido[3,4-d]pyrimidin-4(3H)-one], the inhibition at 0.1 µM was > 50%.

With `O=c1[nH]c(COc2ccc(Cl)c(F)c2)nc2c(CNCC3CCNCC3)nccc12` [Example 127, 2-((4-chloro-3-fluorophenoxy)methyl)-8-(((piperidin-4-ylmethyl)amino)methyl)pyrido[3,4-d]pyrimidin-4(3H)-one], the inhibition at 0.1 µM was in the range of 20 to 50%.

`N#Cc1ccccc1OCc1nc2c(CNCC3CCNCC3)nccc2c(=O)[nH]1` [Example 128, 2-((4-oxo-8-(((piperidin-4-ylmethyl)amino)methyl)-3,4-dihydropyrido[3,4-d]pyrimidin-2-yl)methoxy)benzonitrile]: the inhibition at 0.1 µM was 20 to 50%.

In the case of `N#Cc1ccc(OCc2nc3c(CNCC4CCNCC4)nccc3c(=O)[nH]2)cc1` [Example 129, 4-((4-oxo-8-(((piperidin-4-ylmethyl)amino)methyl)-3,4-dihydropyrido[3,4-d]pyrimidin-2-yl)methoxy)benzonitrile], the inhibition at 0.1 µM fell in the range of 20 to 50%.

Consider `Cc1ccc(Cl)c(OCc2nc3c(CNCC4CCNCC4)nccc3c(=O)[nH]2)c1` [Example 130, 2-((2-chloro-5-methylphenoxy)methyl)-8-(((piperidin-4-ylmethyl)amino)methyl)pyrido[3,4-d]pyrimidin-4(3H)-one], for which the inhibition at 0.1 µM was > 50%.

Turning to `O=c1[nH]c(COc2cnc(Br)cn2)nc2c(CNCC3CCNCC3)nccc12` [Example 131, 2-(((5-bromopyrazin-2-yl)oxy)methyl)-8-(((piperidin-4-ylmethyl)amino)methyl)pyrido[3,4-d]pyrimidin-4(3H)-one], the inhibition at 0.1 µM lay in the range of 20 to 50%.

Take `O=c1[nH]c(COc2cccc(Cl)c2)nc2c(CNCC3CCNCC3)nccc12` [Example 132, 2-((3-chlorophenoxy)methyl)-8-(((piperidin-4-ylmethyl)amino)methyl)pyrido[3,4-d]pyrimidin-4(3H)-one]: the inhibition at 0.1 µM is > 50%.

Consider `O=c1[nH]c(COc2ccccn2)nc2c(CNCC3CCNCC3)nccc12` [Example 133, 8-(((piperidin-4-ylmethyl)amino)methyl)-2-((pyridin-2-yloxy)methyl)pyrido[3,4-d]pyrimidin-4(3H)-one], for which the inhibition at 0.1 µM is < 20%.

For `Cc1cc(OCc2nc3c(CNCC4CCNCC4)nccc3c(=O)[nH]2)ccc1Cl` [Example 134, 2-((4-chloro-3-methylphenoxy)methyl)-8-(((piperidin-4-ylmethyl)amino)methyl)pyrido[3,4-d]pyrimidin-4(3H)-one], the inhibition at 0.1 µM was 20 to 50%.

As for `CCc1ccc(OCc2nc3c(CNCC4CCNCC4)nccc3c(=O)[nH]2)cc1` [Example 135, 2-((4-ethylphenoxy)methyl)-8-(((piperidin-4-ylmethyl)amino)methyl)pyrido[3,4-d]pyrimidin-4(3H)-one], the inhibition at 0.1 µM lay in the range of 20 to 50%.

For `Cc1ccc(OCc2nc3c(CNCC4CCNCC4)nccc3c(=O)[nH]2)cc1C` [Example 136, 2-((3,4-dimethylphenoxy)methyl)-8-(((piperidin-4-ylmethyl)amino)methyl)pyrido[3,4-d]pyrimidin-4(3H)-one], the inhibition at 0.1 µM fell in the range of 20 to 50%.

`Cc1cc(Cl)ccc1OCc1nc2c(CNCC3CCNCC3)nccc2c(=O)[nH]1` [Example 137, 2-((4-chloro-2-methylphenoxy)methyl)-8-(((piperidin-4-ylmethyl)amino)methyl)pyrido[3,4-d]pyrimidin-4(3H)-one]: the inhibition at 0.1 µM is 20 to 50%.

As to `N#Cc1cccc(OCc2nc3c(CNCC4CCNCC4)nccc3c(=O)[nH]2)c1` [Example 138, 3-((4-oxo-8-(((piperidin-4-ylmethyl)amino)methyl)-3,4-dihydropyrido[3,4-d]pyrimidin-2-yl)methoxy)benzonitrile], the inhibition at 0.1 µM lay within 20 to 50%.

On to `O=c1[nH]c(COc2ccc3c(c2)CCC3)nc2c(CNCC3CCNCC3)nccc12` [Example 139, 2-(((2,3-dihydro-1H-inden-5-yl)oxy)methyl)-8-(((piperidin-4-ylmethyl)amino)methyl)pyrido[3,4-d]pyrimidin-4(3H)-one], for which the inhibition at 0.1 µM fell in the range of 20 to 50%.
